Series [1] concerns the target T1, cloned human MT1 receptors (Homo sapiens, UniProt P48039).
T1 construct: expressed in transfected cells
Briefly: [35S]GTPγS binding assay, NIH3T3 cells expressing human MT1. As to MT1 Activity: key: A = agonist; PA = partial agonist; ANT = antagonist; IA = Inverse agonist. The following applies: for MT1 IAr ± SEM (relative intrinsic activity): maximal net effect relative to MLT. The series is classed as biochemical. As for the experimental part:
(§1) Membranes were incubated for 90 min at 37° C. in binding buffer (Tris/HCl 50 mM, pH 7.4). The final membrane concentration was 5-10 μg of protein per tube. […] The pKi values are the mean of at least three independent determinations performed in duplicate. To define the functional activity of the compounds of Formula (I) at the MT1 and MT2 receptor subtypes, [^35S]GTPγS binding assays in NIH3T3 cells expressing human-cloned MT1 or MT2 receptors were performed. The amount of bound [^35S]GTPγS is proportional to the level of analogue-induced G-protein activation and is related to the intrinsic activity of the compound (i.e. a compound of Formula (I)) under study. […] Nonspecific binding was assessed using non-radiolabeled GTPγS (10 μM). […] Basal stimulation is the amount of [^35S]GTPγS specifically bound in the absence of the compounds of Formula (I) and was taken as 100%. […] All of the measurements were performed in triplicate.
(GTPγS resists hydrolysis and so accumulates on activated G proteins.)

Series [2] concerns the target T2, cloned human MT2 receptors (Homo sapiens, UniProt P49286).
T2 construct: expressed in transfected cells
T2 sequence (P49286 1-362): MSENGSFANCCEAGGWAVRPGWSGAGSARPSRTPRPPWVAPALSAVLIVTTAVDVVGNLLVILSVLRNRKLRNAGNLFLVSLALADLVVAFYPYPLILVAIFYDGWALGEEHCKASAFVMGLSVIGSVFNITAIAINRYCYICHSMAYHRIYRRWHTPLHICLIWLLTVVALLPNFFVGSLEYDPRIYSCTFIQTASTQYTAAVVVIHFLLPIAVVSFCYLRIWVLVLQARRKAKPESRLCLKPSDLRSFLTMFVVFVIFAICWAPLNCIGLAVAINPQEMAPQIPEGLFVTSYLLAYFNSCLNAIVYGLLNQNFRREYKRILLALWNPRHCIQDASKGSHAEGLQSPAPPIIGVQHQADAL
Briefly: 2-[125I]iodomelatonin competition binding, human MT2 in NIH3T3 cells. Particulars: human MT2 in NIH3T3 cells; calculated from IC50 by Cheng-Prusoff; mean of at least three determinations. As to the method:
as §1

The target in series [3] is T2, cloned human MT2 receptors. Briefly: [35S]GTPγS binding assay, NIH3T3 cells expressing human MT2. As to MT2 Activity: key: A = agonist; PA = partial agonist; ANT = antagonist; IA = Inverse agonist. Particulars: for MT2 IAr ± SEM (relative intrinsic activity): maximal net effect relative to MLT. Type of series: biochemical. As to the method:
as §1

Series [4] has as its target T1, cloned human MT1 receptors. In words: 2-[125I]iodomelatonin competition binding, human MT1 in NIH3T3 cells. Particulars: calculated from IC50 by Cheng-Prusoff, mean of at least three determinations. As to the method:
as §1

The target of series [5] is high-affinity MLT receptors. The following applies: read-out: Ki, high-affinity MLT receptors; cited from earlier work.
The test system of series [6] is Adult Sprague Dawley rats. In words: Elevated plus maze (EPM). Type of series: in vivo, rat. The following applies: melatonin 50 mg/kg. As to the method: The maze is comprised of two open arms (50×10 cm) and two closed arms (50×10×40 cm) that extend from a common central platform (10×10 cm). The apparatus, made of wood (painted black) was elevated to a height of 80 cm above floor level. The closed arms are located opposite one another. Behavior is recorded over a period of 5 min using a video camera positioned directly above the maze and rated by an observer blind to drug conditions. The major measure of interest is the amount of time spent in the open arms. As an index of general activity and distribution, the total number of entries into both open and closed arms was also recorded. […] In order to increase the sensitivity of this test to anxiolytic activity, tests are carried out under normal room illumination (25 W bulb).

SMILES strings stand for the structures.

The term melting point denotes the temperature of the solid-liquid transition. As a reminder, the Ki is a measure of affinity in units of concentration, obtained from inhibition or displacement.

T1 sequence (P48039 whole entry): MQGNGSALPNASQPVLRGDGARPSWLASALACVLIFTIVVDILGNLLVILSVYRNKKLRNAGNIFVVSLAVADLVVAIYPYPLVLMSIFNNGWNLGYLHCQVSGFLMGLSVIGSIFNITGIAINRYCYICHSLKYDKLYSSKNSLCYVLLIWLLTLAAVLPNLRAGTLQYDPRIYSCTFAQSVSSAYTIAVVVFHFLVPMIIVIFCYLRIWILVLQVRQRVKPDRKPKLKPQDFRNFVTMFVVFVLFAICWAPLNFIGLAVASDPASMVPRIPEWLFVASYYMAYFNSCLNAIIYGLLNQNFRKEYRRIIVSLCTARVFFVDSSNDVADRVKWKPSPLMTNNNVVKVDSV

As to `CC(=O)NCCN(c1ccccc1)c1ccccc1` [5a, N-[2-(diphenylamino)ethyl]acetamide], the melting point is 44 to 45 °C. In series [1], the “MT1 Activity” value is recorded as “ANT” and the “MT1 IAr ± SEM (relative intrinsic activity)” value stood at 0.10 ± 0.03. Besides, in series [2], the “MT2 pKi” value is on record as 8.41 ± 0.13. Further, the “MT2 IAr ± SEM (relative intrinsic activity)” value in series [3] is 0.57 ± 0.04. Besides, the “MT1 pKi” value in series [4] is given as 6.90 ± 0.04.
`COc1ccc(N(CCNC(C)=O)c2ccccc2)cc1` [5e, N-{-2-[(4-Methoxyphenyl)-phenylamino]ethyl}acetamide] showed a melting point of 102 to 104 °C. Also, in series [1], the “MT1 Activity” value was “ANT” and the “MT1 IAr ± SEM (relative intrinsic activity)” value is reported as 0.02 ± 0.01. The “MT2 pKi” value in series [2] is listed as 7.56 ± 0.10. In addition, in series [3], the “MT2 Activity” value was “ANT” and the “MT2 IAr ± SEM (relative intrinsic activity)” value is given as 0.06 ± 0.03. In addition, in series [4], the “MT1 pKi” value is recorded as 6.11 ± 0.12.
As to `COc1ccc2[nH]cc(CCNC(C)=O)c2c1` [MLT, N-acetyl-5-methoxytryptamine, reference compound], the Ki in series [5] was approximately 0.1 nM. Further, in series [6], the “Head Dips” value is 7.17 ± 0.89, the “Percentage of time in Closed Arms” value is 73.33 ± 3.02 (P = 0.001) % and the “Percentage of time in Open Arms” value is given as 26.67 ± 3.0 (P = 0.001) %.
In turn, `COc1cccc(N(C)CCNC(C)=O)c1` [5j, N-{2-[(3-Methoxyphenyl)-methylamino]ethyl}acetamide] registered a melting point of 69 to 71 °C. In addition, in series [1], the “MT1 IAr ± SEM (relative intrinsic activity)” value came out at 0.95 ± 0.08. The “MT2 pKi” value in series [2] is on record as 9.19 ± 0.01. Besides, the “MT2 IAr ± SEM (relative intrinsic activity)” value in series [3] worked out at 1.06 ± 0.05. The “MT1 pKi” value in series [4] was 9.09 ± 0.10.

Source of the values: US8791163B2 (McGill University, priority 2006, dated 2014).
